Marks after values point to notes of the source that are not given here.
Columns and labels:
Format in all cases: in vivo, C57BL/6J mice
[1] = system: nonalcoholic fatty liver mice induced by high-fat feed; test: Liver lipid extraction and measurement (TG, TC) in high-fat feed induced nonalcoholic fatty liver mice
Procedure: (§1) 1. Preparation of the Composition of the Present invention • (1) L008 and H008 groups: The composition is the red yeast rice of the present invention obtained by fermenting rice with the Monascus pilosus of the present invention as described in Embodiment 2. The daily dosage for adults in the L008 and H008 groups is 0.5 g/day and 2 g/day, containing 1.5 mg/day and 6 mg/day of monascinol (a compound having the structure of Formula (I)), respectively. • (2) Msol group: Monascinol (a compound having the structure of Formula (I)), with a daily dosage of 6 mg/day for adults.
(§2) The experiment used 7-week-old male C57BL/6J strain mice purchased from the National Laboratory Animal Center. The initial body weight was about 23 g, with 12 mice per group. They were housed at 60% relative humidity, room temperature 25±1° C., with a 12-hour light cycle (8:00-20:00). The experiment lasted for 22 weeks, during which food and water were provided ad libitum. Body weight, food intake, and water consumption were measured weekly.
(§3) The feeding dosage calculation was based on the experiment initial estimation method published by the U.S. Food and Drug Administration in 2005 (Estimating the maximum safe starting dose in initial clinical trials for therapeutics in adult healthy volunteers). Using a 60 kg adult as the standard, when conducting trials on higher experimental animals, the dosage conversion principle is to use 12.3 times the recommended daily intake per kilogram of human body weight (mg/kg bw/day) as the recommended daily intake per kilogram of mouse body weight. The calculation formula is as follows: […]
Embodiment 4 uses a high-fat feed to induce a nonalcoholic fatty liver animal model. The animal experiment lasted for 22 weeks. Animal test feed was prepared according to the formula of Research Diets (New Brunswick, NJ, USA) for D12450B and D12492. The grouping is as follows: • i. ND group: Normal animal group. • ii. HFD group: Control group, nonalcoholic fatty liver mice induced by high-fat feed. • iii. […]

[2] = system: nonalcoholic fatty liver mice induced by high-fat feed; test: Liver weight and liver/body weight ratio in high-fat feed induced nonalcoholic fatty liver mice
Procedure: as §1, §2, §3
(§4) Embodiment 4 uses a high-fat feed to induce a nonalcoholic fatty liver animal model. The animal experiment lasted for 22 weeks. Animal test feed was prepared according to the formula of Research Diets (New Brunswick, NJ, USA) for D12450B and D12492. The grouping is as follows: • i. ND group: Normal animal group. • ii. HFD group: Control group, nonalcoholic fatty liver mice induced by high-fat feed. • iii. L008 group: Nonalcoholic fatty liver mice induced by high-fat feed and gavaged daily with red yeast rice powder, equivalent to 0.5 g of the red yeast rice of the present invention consumed daily by a 60 kg adult, containing 1.5 mg monascinol (a compound having the structure of Formula (I)). • iv. H008 group: Nonalcoholic fatty liver mice induced by high-fat feed and gavaged daily with red yeast rice powder, equivalent to 2 g of the red yeast rice of the present invention consumed daily by a 60 kg adult, containing 6 mg monascinol (a compound having the structure of Formula (I)). • v. […]

[3] = system: nonalcoholic fatty liver mice induced by high-fat feed; test: Liver histopathology (H&E staining) assessment in high-fat feed induced nonalcoholic fatty liver mice
Procedure: as §1, §2, §3
Embodiment 4 uses a high-fat feed to induce a nonalcoholic fatty liver animal model. The animal experiment lasted for 22 weeks. Animal test feed was prepared according to the formula of Research Diets (New Brunswick, NJ, USA) for D12450B and D12492. The grouping is as follows: • i. ND group: Normal animal group. • ii. HFD group: Control group, nonalcoholic fatty liver mice induced by high-fat feed. • iii. L008 group: Nonalcoholic fatty liver mice induced by high-fat feed and gavaged daily with red yeast rice powder, equivalent to 0.5 g of the red yeast rice of the present invention consumed daily by a 60 kg adult, containing 1.5 mg monascinol (a compound having the structure of Formula (I)). • iv. H008 group: Nonalcoholic fatty liver mice induced by high-fat feed and gavaged daily with red yeast rice powder, equivalent to 2 g of the red yeast rice of the present invention consumed daily by a 60 kg adult, containing 6 mg monascinol (a compound having the structure of Formula (I)). • v. Msol group: Nonalcoholic fatty liver mice induced by high-fat feed and gavaged daily with monascinol (a compound having the structure of Formula (I)) powder, equivalent to 6 mg of monascinol (a compound having the structure of Formula (I)) powder consumed daily by a 60 kg adult.
In the 22nd week of the experiment, food was withheld for 12-14 hours before blood collection. […] The obtained blood samples were centrifuged at 4° C., 3,000×g for 15 minutes. The upper layer of blood was aliquoted into eppendorf tubes and stored at −80° C. The liver was weighed, and the second largest lobe was preserved in 10% pathological formalin. The remaining liver was washed with 0.9% physiological saline, and along with the kidneys, placed in zipper bags and stored at −80° C.
The liver was fixed in 10% formalin, dehydrated, and embedded in paraffin to make tissue sections. […]

[4] = system: gut microbiota of nonalcoholic fatty liver mice; test: Analysis of gut microbiota (full-length 16S sequencing) in nonalcoholic fatty liver mice; conditions: compared with the HFD group; L008, H008 and Msol groups
Procedure: as §4, with “iv.” for “iv. H008 group: Nonalcoholic fatty liver mice induced by high-fat feed and gavaged daily with red yeast rice powder, equivalent to 2 g of the red yeast rice of the present invention consumed daily by a 60 kg adult, containing 6 mg monascinol (a compound having the structure of Formula (I)). • v.”
(1) Extraction of Genomic DNA and PCR Amplification and Purification Total genomic DNA was extracted from samples (QIAamp PowerFecal DNA, Qiagen). DNA concentration was determined using a Qubit 4.0 fluorometer (Thermo Scientific) and adjusted to 1 ng/μL. […] PCR reactions were performed using KAPA HiFi HotStart ReadyMix (Roche): 95° C., 3 minutes; 20-27 cycles (sample-dependent): 95° C., 30 seconds, 57° C., 30 seconds, 72° C., 60 seconds; 72° C. for 5 minutes, and final storage at 4° C. PCR products were monitored on 1% agarose gel. […]

[5] = system: nonalcoholic fatty liver mice induced by high-fat feed; test: Serum liver function indices AST and ALT in high-fat feed induced nonalcoholic fatty liver mice
Procedure: as §1, §2, §3
Embodiment 4 uses a high-fat feed to induce a nonalcoholic fatty liver animal model. The animal experiment lasted for 22 weeks. […]
A biochemical auto-analyzer (Model Beckman-700, purchased from Fullerton, CA, USA) was used for detection. The items detected were: TC (Total Cholesterol), TG (Triglyceride), AST (Aspartate Aminotransferase) and ALT (Alanine Aminotransferase) activities.

[6] = Msol group: monascinol 0.0012 g/kg bw/day by gavage, high-fat diet, 22 weeks, mean ± SD, n = 8
[7] = lesion severity grade (0 to 4), Msol group: monascinol 0.0012 g/kg bw/day, high-fat diet, 22 weeks, mean ± SD, n = 8
[8] = serum, Msol group: monascinol 0.0012 g/kg bw/day by gavage, high-fat diet, 22 weeks, mean ± SD, n = 8

Substance: Monascinol [Msol]
- Liver TC [1, 6]: 1.02 ± 0.32 ^ab mg/g
- Liver TG [1, 6]: 7.25 ± 0.71 ^a mg/g
- Effect on TC and TG in the liver, in words ([1]; versus HFD group, p<0.05): effectively reduced the accumulation of TC and TG in the liver
- Liver Weight [2, 6]: 1.01 ± 0.06 ^a g
- Liver/Body Weight [2, 6]: 2.85 ± 0.24 ^a %
- Effect on liver weight, in words ([2]; versus HFD group, p<0.05, various doses (L008 and H008 groups) and Msol): significantly reducing liver weight
- Effect on liver/body weight ratio, in words ([2]; versus HFD group, various doses (L008 and H008 groups) and Msol): improving the liver/body weight ratio
- Fatty change with macro-vesicles, multifocal [3, 7]: 0.3 ± 0.7 ^a
- Fatty change with micro-vesicles, multifocal [3, 7]: 0.1 ± 0.4 ^a
- Fatty change, general [3, 7]: 0.3 ± 0.7 ^a
- Inflammation, granulomatous, multifocal ([3]; lesion severity grade (0 to 4), Msol group: monascinol 0.0012 g/kg bw/day, high-fat diet, 22 weeks, n = 8): 0 ^a
- Effect on accumulation of liver lipid droplets / fatty infiltration, in words (FIG. 7, Table 6) ([3]; versus HFD group, p<0.05): significantly improved the accumulation of liver lipid droplets and fatty infiltration
- Abundance of Blautia and Intestinimonas in the intestine, in words (FIG. 9) [4]: increase the microbial populations of Blautia and Intestinimonas
- ALT Activity [5, 8]: 25.3 ± 3.4 ^a U/L
- AST Activity [5, 8]: 60.6 ± 3.7 ^a U/L
- Effect on serum AST and ALT activities, in words ([5]; versus HFD group, various doses (L008 and H008 groups) and Monascinol): significantly reduced AST and ALT activities

Reference: patent publication US20250375410A1, “COMPOUND FOR PREVENTING OR TREATING NONALCOHOLIC FATTY LIVER DISEASE AND COMPOSITION THEREOF” (SUNWAY BIOTECH CO., LTD., priority 2024, published 2025)
